The record followed here is patent US20100222349A1, “QUINOLINE DERIVATIVES USED TO TREAT INFLAMMATORY AND ALLERGIC DISEASES” (Glaxo Group Limited, priority 2007, published 2010).

One experiment has as its target T1, human H1 receptor (Homo sapiens, UniProt P35367).
T1 construct: expressed in transfected cells
The experiment can be described thus: Histamine H1 functional antagonist assay: determination of functional pKi values (FLIPR). It counts as cell-based. The note with it: CHO cells expressing human H1 receptor, histamine at EC80, read-out: average pKi (pKb) at H1 (converted). As for the experimental part:
The human H1 receptor is cloned using known procedures described in the literature [Biochem. Biophys. Res. Commun., 201(2):894 (1994)]. Chinese hamster ovary (CHO) cells stably expressing the human H1 receptor are generated according to known procedures described in the literature [Br. J. Pharmacol., 117(6):1071 (1996)]. The histamine H1 cell line is seeded into non-coated black-walled clear bottom 384-well tissue culture plates in alpha minimum essential medium (Gibco/Invitrogen, cat no. 22561-021), supplemented with 10′)/0 dialysed foetal calf serum (Gibco/Invitrogen cat no. 12480-021) and 2 mM L-glutamine (Gibco/Invitrogen cat no 25030-024) and is maintained overnight at 5% CO2, 37° C. Excess medium is removed from each well to leave 10 μl. 30 μl loading dye (250 μM Brilliant Black, 2 μM Fluo-4 diluted in Tyrodes buffer+probenecid (145 mM NaCl, 2.5 mM KCl, 10 mM HEPES, 10 mM D-glucose, 1.2 mM MgCl2, 1.5 mM CaCl2, 2.5 mM probenecid, pH adjusted to 7.40 with NaOH 1.0 M)) is added to each well and the plates are incubated for 60 min at 5% CO2, 37° C. 10 μl of test compound, diluted to the required concentration in Tyrodes buffer+probenecid (or 10 μl Tyrodes buffer+probenecid as a control) is added to each well and the plate is incubated for 30 min at 37° C., 5% CO2. The plates are then placed into a FLIPR™(Molecular Devices, UK) to monitor cell fluorescence (λex=488 nm, λEM=540 nm) in the manner described in Sullivan et al., (In: Lambert DG (ed.), Calcium Signaling Protocols, New Jersey: Humana Press, 1999, 125-136) before and after the addition of 10 μl histamine at a concentration that results in the final assay concentration of histamine being EC80. Functional antagonism is indicated by a suppression of histamine induced increase in fluorescence, as measured by the FLIPR™ system (Molecular Devices). By means of concentration effect curves, functional affinities are determined using standard pharmacological mathematical analysis.

For another experiment, the target named is T2, histamine H3 receptor (Homo sapiens, UniProt Q9Y5N1).
T2 construct: expressed in transfected cells; host or cells: CHO K1 cells with pSwitch/pGeneH3 (GeneSwitch, mifepristone-induced), clone 3H3; membrane preparation
T2 sequence (Q9Y5N1 whole entry, species assumed): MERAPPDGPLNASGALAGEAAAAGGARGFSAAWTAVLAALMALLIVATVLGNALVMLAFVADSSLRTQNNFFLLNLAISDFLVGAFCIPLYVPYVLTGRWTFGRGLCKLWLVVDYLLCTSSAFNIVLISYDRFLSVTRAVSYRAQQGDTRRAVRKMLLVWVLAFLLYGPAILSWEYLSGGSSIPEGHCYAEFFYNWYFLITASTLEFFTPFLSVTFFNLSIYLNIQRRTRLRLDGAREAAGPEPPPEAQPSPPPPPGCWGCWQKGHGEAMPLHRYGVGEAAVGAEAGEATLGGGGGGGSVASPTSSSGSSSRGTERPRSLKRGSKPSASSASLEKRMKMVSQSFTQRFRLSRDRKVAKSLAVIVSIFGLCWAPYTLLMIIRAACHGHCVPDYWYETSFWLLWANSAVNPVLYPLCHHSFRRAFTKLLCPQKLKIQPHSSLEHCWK
In words: Histamine H3 functional antagonist assay (GTPγS, membranes). It counts as biochemical. The note with it: CHO K1 membranes, [35S]-GTPγS, histamine at EC80; read-out: average pKi (pKb) at H3 (converted). As for the experimental part: The histamine H3 cDNA is isolated from its holding vector, pcDNA3.1 TOPO (InVitrogen), by restriction digestion of plasmid DNA with the enzymes BamH1 and Not-1 and is ligated into the inducible expression vector pGene (InVitrogen) digested with the same enzymes. The GeneSwitchTM system (a system where in transgene expression is switched off in the absence of an inducer and switched on in the presence of an inducer) is performed as described in U.S. Pat. Nos. 5,364,791; 5,874,534; and 5,935,934. Ligated DNA is transformed into competent DH5α E. coli host bacterial cells and is plated onto Luria Broth (LB) agar containing ZeocinTM (an antibiotic which allows the selection of cells expressing the sh ble gene which is present on pGene and pSwitch) at 50 μgml^-1. Colonies containing the re-ligated plasmid are identified by restriction analysis. DNA for transfection into mammalian cells is prepared from 250 ml cultures of the host bacterium containing the […]3 plasmid and is isolated using a DNA preparation kit (Qiagen Midi-Prep) as per manufacturers guidelines (Qiagen). CHO K1 cells previously transfected with the pSwitch regulatory plasmid (InVitrogen) are seeded at 2×10^6 cells per T75 flask in Complete Medium, containing Hams F12 (GIBCOBRL, Life Technologies) medium supplemented with 10% v/v dialysed foetal bovine serum, L-glutamine, and hygromycin (100 μgml^-1), 24 h prior to use. Plasmid DNA is transfected into the cells using Lipofectamine plus according to the manufacturer's guidelines (InVitrogen). 48 h post transfection, cells are placed into complete medium supplemented with 500 μgml^-1 ZeocinTM. 10-14 days post selection, 10 nM Mifepristone (InVitrogen) is added to the culture medium to induce the expression of the receptor. 18 h post induction, cells are detached from the flask using ethylenediamine tetra-acetic acid (EDTA; 1:5000; InVitrogen), following several washes with PBS, pH 7.4 and are resuspended in Sorting Medium containing Minimum Essential Medium (MEM), without phenol red, and are supplemented with Earles salts and 3% Foetal Clone II (Hyclone). Approximately 1×10^7 cells are examined for receptor expression by staining with a rabbit polyclonal antibody, 4a, raised against the N-terminal domain of the histamine H3 receptor, are incubated on ice for 60 min, followed by two washes in sorting medium. Receptor bound antibody is detected by incubation of the cells for 60 min on ice with a goat anti rabbit antibody, conjugated with Alexa 488 fluorescence marker (Molecular Probes). Following two further washes with Sorting Medium, cells are filtered through a 50 μm FilconTM (BD Biosciences) and then are analysed on a FACS Vantage SE Flow Cytometer fitted with an Automatic Cell Deposition Unit. Control cells are non-induced cells treated in an analogous manner. Positively stained cells are sorted as single cells into 96-well plates, containing Complete Medium containing 500 μgml^-1 ZeocinTM and are allowed to expand before reanalysis for receptor expression via antibody and ligand binding studies. One clone, 3H3, is selected for membrane preparation. All steps of the protocol are carried out at 4° C. and with pre-cooled reagents. The cell pellet is resuspended in 10 volumes of homogenisation buffer (50 mM N-2-hydroxyethylpiperazine-N'-2-ethanesulfonic acid (HEPES), 1 mM ethylenediamine tetra-acetic acid (EDTA), pH 7.4 with KOH, supplemented with 10^-6 M leupeptin (acetyl-leucyl-leucyl-arginal; Sigma L2884), 25 μgml^-1 bacitracin (Sigma B0125), 1 mM phenylmethylsulfonyl fluoride (PMSF) and 2×10^-6 M pepstain A (Sigma)). The cells are then homogenised by 2×15 sec bursts in a 1 L glass Waring blender, followed by centrifugation at 500 g for 20 min. The supernatant is then spun at 48,000 g for 30 min. The pellet is resuspended in homogenisation buffer (4× the volume of the original cell pellet) by vortexing for 5 sec, followed by homogenisation in a Dounce homogeniser (10-15 strokes). […]
A general note: Binding of GTPγS marks nucleotide exchange on a G protein.

Some results are limits rather than exact numbers.

T1 sequence (P35367 whole entry): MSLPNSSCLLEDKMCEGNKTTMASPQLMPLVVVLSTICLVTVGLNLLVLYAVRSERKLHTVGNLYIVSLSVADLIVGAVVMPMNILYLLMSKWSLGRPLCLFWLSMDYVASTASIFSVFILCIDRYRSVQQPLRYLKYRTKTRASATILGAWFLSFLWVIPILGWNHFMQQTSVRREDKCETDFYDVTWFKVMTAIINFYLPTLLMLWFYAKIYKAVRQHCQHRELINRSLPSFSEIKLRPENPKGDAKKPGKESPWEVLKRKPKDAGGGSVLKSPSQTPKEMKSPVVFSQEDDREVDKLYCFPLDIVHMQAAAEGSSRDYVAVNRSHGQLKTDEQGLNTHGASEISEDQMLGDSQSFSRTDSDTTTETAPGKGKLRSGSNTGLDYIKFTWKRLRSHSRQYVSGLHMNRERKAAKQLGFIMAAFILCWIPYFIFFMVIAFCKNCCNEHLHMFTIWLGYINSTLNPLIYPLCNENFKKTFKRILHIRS

For the compound `CCCCc1cc(OC2CCN(CCC3CCN(C(=O)CC)CC3)CC2)c2ncccc2c1` [Example 4, 6-Butyl-8-({1-[2-(1-propanoyl-4-piperidinyl)ethyl]-4-piperidinyl}oxy)quinoline], the Ki at human H1 receptor was < 100 nM; on histamine H3 receptor it was > 316 nM.
The matching figures for `CCCCc1cc(OC2CCN(CC(=O)NC(C)(C)C)CC2)c2ncccc2c1` [Example 12, 2-{4-[(6-butyl-8-quinolinyl)oxy]-1-piperidinyl}-N-(1,1-dimethylethyl) acetamide]: < 100 nM and > 3160 nM.
The matching figures for `CCCCc1cc(OC2CCN(CCNC(=O)CCCOC)CC2)c2ncccc2c1` [Example 81, N-(2-{4-[(6-butyl-8-quinolinyl)oxy]-1-piperidinyl}ethyl)-4-(methyloxy) butanamide]: < 10 nM and > 316 nM.
The like results for `CCCCc1cc(OC2CCN(C[C@H]3CC[C@H](C(=O)NCC(C)(C)C)CC3)CC2)c2ncccc2c1` [Example 46, trans-4-({4-[(6-butyl-8-quinolinyl)oxy]-1-piperidinyl}methyl)-N-(2,2-dimethylpropyl) cyclohexane carboxamide] were, in that order, < 100 nM and > 316 nM.
For `CCCCc1cc(OC2CCN(CCCC(=O)NC(C)C)CC2)c2ncccc2c1` [Example 25, 4-{4-[(6-butyl-8-quinolinyl)oxy]-1-piperidinyl}-N-(1-methylethyl)butanamide], the Ki on human H1 receptor was < 10 nM; on histamine H3 receptor, > 3160 nM.
The like results for `CCCCCCc1cc(OC2CCN(C[C@H]3CC[C@H](C(=O)N4CCCCC4)CC3)CC2)c2ncccc2c1` [Example 51, 6-hexyl-8-[(1-{[trans-4-(1-piperidinylcarbonyl)cyclohexyl]methyl}-4-piperidinyl)oxy]quinoline] were, in that order, < 100 nM and > 316 nM.
Turning to `CCCCc1cc(OC2CCN(C[C@H]3CC[C@H](C(=O)N4CCOCC4)CC3)CC2)c2ncccc2c1` [Example 63, 6-butyl-8-[(1-{[trans-4-(4-morpholinylcarbonyl)cyclohexyl]methyl}-4-piperidinyl)oxy]quinoline], the Ki on human H1 receptor was < 100 nM; at histamine H3 receptor, > 316 nM.
The like results for `CCCCc1cc(OC2CCN(CCCC(=O)NCCCOC)CC2)c2ncccc2c1` [Example 21, 4-{4-[(6-butyl-8-quinolinyl)oxy]-1-piperidinyl}-N-[3-(methyloxy)propyl] butanamide] were, in that order, < 10 nM and > 3160 nM.
The like results for `CCCCc1cc(OC2CCN(CCCCC(=O)NCCOC)CC2)c2ncccc2c1` [Example 29, 5-{4-[(6-butyl-8-quinolinyl)oxy]-1-piperidinyl}-N-[2-(methyloxy)ethyl] pentanamide] were, in that order, < 100 nM and > 3160 nM.
The like results for `CCCCc1cc(OC2CCN(CCCCC(=O)N(CC)CC)CC2)c2ncccc2c1` [Example 27, 5-{4-[(6-butyl-8-quinolinyl)oxy]-1-piperidinyl}-N,N-diethylpentanamide] were, in that order, < 10 nM and > 3160 nM.
For the compound `CCCCc1cc(OC2CCN(CC3CCN(C(=O)CC)CC3)CC2)c2ncccc2c1` [Example 2, 6-Butyl-8-({1-[(1-propanoyl-4-piperidinyl)methyl]-4-piperidinyl}oxy)quinoline], the Ki on human H1 receptor was < 100 nM; on histamine H3 receptor it was > 316 nM.
The matching figures for `CCCCc1cc(OC2CCN(C[C@H]3CC[C@H](C(=O)N4CCCC4)CC3)CC2)c2ncccc2c1` [Example 62, 6-butyl-8-[(1-{[trans-4-(1-pyrrolidinylcarbonyl)cyclohexyl]methyl}-4-piperidinyl)oxy]quinoline]: < 10 nM and > 316 nM.
The matching figures for `CCCCc1cc(OC2CCN(CC(=O)NCCOC)CC2)c2ncccc2c1` [Example 11, 2-{4-[(6-butyl-8-quinolinyl)oxy]-1-piperidinyl}-N-[2-(methyloxy)ethyl] acetamide]: < 100 nM and > 3160 nM.
The like results for `CCCCc1cc(OC2CCN(CCCCCNC(=O)C(C)(C)C)CC2)c2ncccc2c1` [Example 76, N-(5-{4-[(6-butyl-8-quinolinyl)oxy]-1-piperidinyl}pentyl)-2,2-dimethyl propanamide] were, in that order, < 10 nM and > 316 nM.
In the case of `CCCCCc1cc(OC2CCN(CCCNC(=O)CC)CC2)c2ncccc2c1` [Example 90, N-(3-{4-[(6-Pentyl-8-quinolinyl)oxy]-1-piperidinyl}propyl)propanamide], the Ki at human H1 receptor is < 10 nM; at histamine H3 receptor, > 316 nM.
As for `CCCCc1cc(OC2CCN(CC3CCN(C(C)=O)CC3)CC2)c2ncccc2c1` [Example 1, 8-({1-[(1-Acetyl-4-piperidinyl)methyl]-4-piperidinyl}oxy)-6-butylquinoline], the Ki is < 100 nM at human H1 receptor and > 316 nM on histamine H3 receptor.
The matching figures for `CCCCc1cc(OC2CCN(CCCCNC(=O)CCC)CC2)c2ncccc2c1` [Example 65, N-(4-{4-[(6-butyl-8-quinolinyl)oxy]-1-piperidinyl}butyl) butanamide]: < 10 nM and > 316 nM.
The matching figures for `CCCCc1cc(OC2CCN(CCCNC(=O)C(C)C)CC2)c2ncccc2c1` [Example 68, N-(3-{4-[(6-butyl-8-quinolinyl)oxy]-1-piperidinyl}propyl)-2-methyl propanamide]: < 10 nM and > 316 nM.
On to `CCCCc1cc(OC2CCN(CC(=O)N(CC)CC)CC2)c2ncccc2c1` [Example 9, 2-{4-[(6-butyl-8-quinolinyl)oxy]-1-piperidinyl}-N,N-diethylacetamide], for which the Ki on human H1 receptor was < 100 nM; at histamine H3 receptor, > 3160 nM.
The like results for `CCCCc1cc(OC2CCN(CCNC(=O)CC)CC2)c2ncccc2c1` [Example 73, N-(2-{4-[(6-butyl-8-quinolinyl)oxy]-1-piperidinyl}ethyl) propanamide] were, in that order, < 10 nM and > 316 nM.
